Where two headings read alike, the source gives them in different places. No end group written: not given here.

The text below walks through data of patent US11701409B2, “Dosing and use of long-acting CLR/ramp agonists” (Adepthera LLC, priority 2016, dated 2023).

Series [1] has as its system C57/B6 mice. Format: in vivo. As to the method: (§1) To evaluate the effects of the long-acting stable analog on heart failure, we treated 8-week-old C57/B6 mice with doxorubicin (10 mg/kg body weight) to induce cardiomyopathy. After the injection of doxorubicin, the animals were injected with wild-type ADM or the long-acting stable analog twice daily. After five days of treatment, the animals were sacrificed, and hearts were collected for weight determination individually. In addition, we collected blood samples for the determination of aspartate aminotransferase activity. Sham adult mice at the same ages were used as normal controls.
In a separate series of study, we evaluated the effects of stable analog on blood aspartate aminotransferase levels (FIG. 4b).

In series [2] the test system is C57/B6 mice. In words: Doxorubicin-induced cardiomyopathy in adult mice, heart weight. It counts as in vivo. The settings on record: for average heart weight: sixth day. On the procedure:
as §1

Another series concerns pregnant SHR rats. Nature of the series: Blood pressure after injection in pregnant spontaneous hypertensive rats (SHR). Format: in vivo, rat. The settings on record: low dose 30 nmoles/kg. The text has this:
(§2) Bolus IP injection of the long-acting stable analog (100 nmoles/kg) led to a sustained reduction of blood pressure for 4 hr in normal pregnant Sprague Dawley rats, whereas the hypotensive effects of wild-type ADM disappeared within 2 hr (FIG. 1a). In addition, we compared the blood pressure-lowering effect of the long-acting stable analog in pregnant Sprague Dawley rats and pregnant spontaneous hypertensive rats (SHR). […] This characteristic not only allows less frequent dosing in clinical condition but also increases the therapeutic index of long-acting CLR/RAMP receptor agonists.

Another series relates to RUPP pregnant rats. Nature of the series: Reduced uterine perfusion pressure (RUPP) preeclampsia rat model, osmotic mini-pump infusion for 4 days. Format: in vivo. On the procedure:
To evaluate the effects of the long-acting stable analog for the treatment of preeclampsia, resistant hypertension, hypertensive crisis, vascular ischemic injury, and pregnancy hypertension, we tested the analog in a reduced uterine perfusion pressure (RUPP) preeclampsia rat model. The model was first described by Dr. Joey P. Granger et al. (2000, Hypertension 37:1191-1195). Briefly, pregnant rats weighing 200-250 g at 14 days of gestation were anesthetized with pentobarbital (40 mg/kg, i.p.). The lower abdomen area was shaved and the skin was swabbed with surgical scrub (iodine and alcohol). A 3-cm skin incision was made at the midline. After a midline incision, the lower abdominal aorta was isolated and a silver clip (0.203 mm) was placed around the aorta above the iliac bifurcation. Because compensatory blood flow to the placenta occurs via an adaptive increase in […] blood flow during pregnancy, both right and left […] arcades were clipped (silver clip, 0.100 mm). RUPP rats were divided into two groups, and an osmotic mini-pump (ALZET) loaded with saline or the long-acting analog was implanted in the upper abdomen. The mini-pumps delivered the solution at a rate of 1 ul/hr. Sham pregnant rats were used as normal controls.
The incision was closed with absorbable braided surgical suture. After awake, animals were given buprenorphine 0.1 mg/kg s.c. once a day for three days. These procedures reduced uterine blood flow in the gravid rat by >40%, and cause hypertension and intrauterine growth restriction in the fetus.
After 4 days of the treatments, all rats were anesthetized and catheterized for measurement of blood pressure and heart rate. Animals were anesthetized with pentobarbital, and a Mikro-tip catheter (1.0 F pressure catheter, Miller, Tex.) was placed into the right carotid artery. After insertion, the catheter was advanced into the aorta, and stopped at the appearance of arterial pressure curve. The Mikro-tip catheter was connected to a Powerlab system, and blood pressure and heart rate was recorded and saved in a computer. In addition, the blood flow velocity above and below the artery constriction site was determined by a Doppler method.
After the hemodynamic measurement was completed (taking about 0.5-1 hr), rats were euthanized. The fetuses, placenta tissues, and hearts were harvested and weighed individually.

Series [3] relates to normal pregnant Sprague Dawley rats. In words: Blood pressure after bolus IP injection in instrumented normal pregnant Sprague Dawley rats. Format: in vivo, rat. Conditions: for duration of sustained reduction of blood pressure (hypotensive effect): bolus IP injection, 100 nmoles/kg, normal pregnant Sprague Dawley rats.
Excerpt: as §2

[4] abbreviates: high dosage 10 μg/kg/hr for four days.
Where [5] appears, read: low dose 3.3 μg/kg/hr for four days.

As for `COc1cccc2c1C(=O)c1c(O)c3c(c(O)c1C2=O)C[C@@](O)(C(=O)CO)C[C@@H]3O[C@H]1C[C@H](N)[C@H](O)[C@H](C)O1` [doxorubicin, reference compound], the “blood aspartate aminotransferase level” value in the series with C57/B6 mice [1] (mouse, in vivo) worked out at 300.7±33.6 U/liter. The average heart weight in the series with C57/B6 mice [2] (doxorubicin 10 mg/kg body weight alone (Dox group)) amounted to 9.3 ± 0.4 mg.
As for “Ace-K(Pal)GCRFGTCTVQKLAHQIYQFTDKDKDNVAPRSKISPQGY-NH2 (KGCRFGTCTVQKLAHQIYQFTDKDKDNVAPRSKISPQGY; N-acetyl, palmitoyl-Lys, C-terminal amide; MOD_RES (1)..(1) …ON; LIPID (1)..(1) …; MOD_RES (39)..(39) AMIDATION) [long-acting stable analog]”, the “blood aspartate aminotransferase level” value in the series on C57/B6 mice [1] (Dox + stable analog, high dose 50 nM/Kg body weight) is on record as 200.1±10.0 U/liter. For the same molecule, in the series with C57/B6 mice [1] (Dox + stable analog, low dose 25 nM/Kg BW), the “effect on doxorubicin-elevated aspartate aminotransferase level” value was “no statistically significant effect”. Moreover, in the series with pregnant SHR rats, the “duration of hypotensive effects” value is given as “over 8 hr”. For the same molecule, in the series on RUPP pregnant rats (setting [4]), the average fetus weight was 483 ± 92 mg, the average heart weight was determined as 3.16±0.06 mg per gram body weight, the average placenta weight worked out at 253 ± 36 mg and the “body weight lost during the four-day experimental period” value is 3±3 grams. Also, in the series with RUPP pregnant rats (setting [4]), the heart rate is reported as 379±8 beats/min and the mean arterial pressure came to 93±5 mmHg. For the same molecule, in the series with RUPP pregnant rats (setting [5]), the average fetus weight was found to be 577 ± 166 mg, the average placenta weight is 301 ± 46 mg and the mean arterial pressure stood at 107±4 mmHg. The “duration of sustained reduction of blood pressure (hypotensive effect)” value in series [3] was determined as 4 h. In addition, the “duration of blood pressure reduction” value in series [3] (low dose 30 nmoles/kg, pregnant Sprague Dawley rats) worked out at 2 h. The average heart weight with C57/B6 mice [2] (co-treatment with doxorubicin 10 mg/kg, peptide injected twice daily, five days) is 11.0 ± 0.6 mg.
As for “adrenomedullin (YRQSMNNFQGLRSFGCRFGTCTVQKLAHQIYQFTDKDKDNVAPRSKISPQGY; ends and bridges not checked; cysteine pairing not given here; UniProt P35318 95-146, looked up) [wild-type ADM, wild-type adrenomedullin, 52 amino acids, 1 intramolecular disulfide bond, ligand of CLR/RAMP receptors, reference compound]”, the “duration of sustained reduction of blood pressure (hypotensive effect)” value in series [3] was at most 2 h. The “reduction of doxorubicin-induced loss of heart weight” value with C57/B6 mice [2] (co-treatment with doxorubicin 10 mg/kg, peptide injected twice daily, five days, Dox group vs. Dox+ADM group) is listed as “not statistically significant”.
